Test results published in publication PMC11861906, “Structural basis for lipid-mediated activation of G protein-coupled receptor GPR55” (Nature Communications, 2025).

Target: wt GPR55 (Gα12) (Homo sapiens, UniProt Q9Y2T6)
Assay: BRET² G protein dissociation assay, wt GPR55 with Gα12
Format: cell-based
Details: for ΔBRET² ratio (Mean): GPR55-wt-G12
Source text: Guided by structural insights, we employed the G protein dissociation assay to validate the G protein selectivity of GPR55. The sequences of Gα13 and Gα12 are highly similar (76% sequence similarity) and only seven Gα13 residues differ within a 4 Å sphere of the receptor- G protein interaction site (Fig. 5d). Therefore, we included Gα12 in our assays as a control since it was reported that 1-AG-PI-activated GPR55 signals exclusively via Gα13[10]. Herein, we observed robust G protein activation (concluded from a BRET² ratio decrease) when GPR55 was co-expressed with Gα13 (Fig. 5b), even without the addition of any ligand. (Fig. 2f and Supplementary Table S3). This observation is indicative of constitutive activity; however, it could also be explained by GPR55 interaction with cellular lipids that are ubiquitously present. […] (Fig. 5c).
G protein dissociation assays were performed according to the original protocols of the TRUPATH BRET² assay[47],[87] but with subtle modifications as previously described[61],[88],[89]. All reagents and cells were obtained from Thermo Fisher Scientific unless indicated otherwise. The coding sequences for the G protein biosensors[47] (Gα12-Rluc8, Gα13-Rluc8, wt Gβ3, and Gγ9-GFP), the wt GPR55, the construct used for cryo-EM (with GFP bearing a G67A mutation to disrupt fluorescence properties[48] for BRET² assays), GPR55 binding pocket mutants (G152^4.56F, G152^4.56W, N171^ECL2Q, N171^ECL2A, T176^5.33A, R253^6.62A), and the wt TBXA2R were codon-optimized for Homo sapiens, gene-synthesized, and sub-cloned into pcDNA^TM3.1(+) between NheI and HindIII restriction sites by GeneArt (Thermo Fisher Scientific). […] Freshly grown cells were washed with Dulbecco’s Balanced Salt Solution (DPBS, cat. #14200075) and detached using trypsin-ethylenediaminetetraacetic acid (trypsin-EDTA) (cat. #25300-062). Then, the cells were reconstituted to 500,000 cells per mL with fresh medium, and 1,000,000 cells were seeded into each well of a 6-well plate. After 3 h incubation at 37 °C and 5% CO2, adherent cells were transfected with 600 ng DNA (1:1:1:1 ratio of plasmid DNA for GPR55, wt Gβ3, Gγ9-GFP, and Gα12-Rluc8 or Gα13-Rluc8). Plasmid DNA was mixed with 1.5 µL Lipofectamine^TM 2000 (cat. #11668027) in Opti-MEM^TM medium (cat. #31985062) and incubated for 20 min. Then, the mixture was added to each well of the 6-well plate following 24 h incubation at 37 °C and 5% CO2. Transfected cells were washed with DPBS, detached using EDTA (Versene, cat. #15040066), and reconstituted into fresh medium at 500,000 cells mL^−1. From this suspension, 50,000 cells were seeded into each well of a white-bottom 96-well plate (Nunc^TM MicroWell^TM 96 wells, cat. #136101) following overnight incubation at 37 °C and 5% CO2. Then, the adherent cells were washed with assay medium [Hank’s balanced salt solution (HBSS, cat. #14065056) plus 20 mM HEPES pH 7.4 (cat. #15630056)] and finally reconstituted into 50 µL of the same medium. […] Methoxy e-Coelenterazine was used as luciferase substrate (Prolume Purple, NanoLight Technology, cat. #369), reconstituted at 1 mM in methanol and diluted to 37.5 µM with assay buffer (7.5 µM final assay concentration). The assay was started by the addition of 20 µL luciferase substrate to each well of the assay plate using a Multidrop^TM Combi reagent dispenser (Thermo Fisher Scientific), followed by 5 min incubation at room temperature. Then, 30 µL of agonist dilutions or DMSO control was added (final DMSO concentration 1.5%), followed by an additional 5 min incubation at room temperature.

Chain of wt GPR55 (Gα12) (Q9Y2T6 whole entry): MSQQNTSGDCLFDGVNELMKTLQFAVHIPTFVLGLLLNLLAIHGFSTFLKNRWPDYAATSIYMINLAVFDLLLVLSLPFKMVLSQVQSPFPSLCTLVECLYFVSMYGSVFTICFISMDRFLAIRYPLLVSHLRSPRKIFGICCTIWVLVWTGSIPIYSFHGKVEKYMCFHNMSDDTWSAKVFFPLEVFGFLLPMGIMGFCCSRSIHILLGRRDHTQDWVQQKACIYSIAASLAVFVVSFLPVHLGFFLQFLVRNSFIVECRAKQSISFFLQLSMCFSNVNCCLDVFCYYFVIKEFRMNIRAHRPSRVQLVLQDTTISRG

Compound | ΔBRET² ratio (Mean) (3e-10 M) | ΔBRET² ratio (Mean) (1e-9 M) | ΔBRET² ratio (Mean) (3e-9 M) | ΔBRET² ratio (Mean) (1e-8 M) | ΔBRET² ratio (Mean) (3e-8 M) | ΔBRET² ratio (Mean) (1e-7 M) | ΔBRET² ratio (Mean) (3e-7 M) | ΔBRET² ratio (Mean) (1e-6 M) | ΔBRET² ratio (Mean) (3e-6 M) | ΔBRET² ratio (Mean) (1e-5 M) | ΔBRET² ratio (Mean) (3e-5 M) | G protein activation at GPR55-transfected cells (in words) (wt GPR55, Gα12)
Cc1cccc(N2CCN(C(=O)c3cc(S(=O)(=O)N(C)C)ccc3N3CCCC3)CC2)c1C [ML184, 3-[[4-(2,3-dimethylphenyl)-1-piperazinyl]carbonyl]-N,N-dimethyl-4-(1-pyrrolidinyl)benzenesulfonamide] | 0.009016 | 0.003569 | -0.002484 | -0.008889 | -0.006497 | -0.00961 | -0.01427 | -0.01536 | -0.01786 | -0.02016 | -0.02115 | 
CCCCC[C@H](O)/C=C/[C@@H]1[C@@H](C/C=C\CCCC(=O)O)[C@H]2CO[C@@H]1C2 [U-46619] |  |  |  |  |  |  |  |  |  |  |  | inactive
